System: anti-β-glucan antibody (IgG ABA)
Test: Anti-β-glucan antibody (ABA) levels in serum by ELISA after IV PGG, Phase I healthy donor trial
Format: in vivo, human
Conditions: for ABA level changes: single dose PGG IV
Description: IPD changes induced by yeast soluble β-glucan were evaluated in a Phase I healthy donor trial, which included three cohorts of 12 healthy human volunteers aged 18-65 years. In Cohort 1, subjects were administered a single dose of 4 mg/kg yeast soluble β-glucan by IV infusion over 2-3 hours. In Cohort 2, subjects were administered 4 mg/kg PGG by IV infusion over 2-3 hours once weekly for 3 weeks. Half of the subjects received premedications which included low dose corticosteroids (4 mg of dexamethasone, PO) and low-dose H1 antagonists (50 mg diphenhydramine.
In Cohort 3, subjects received either 2 mg/kg PGG or 4 mg/kg PGG by IV infusion over 1-2 hours. The subjects were administered either dose of PGG once weekly for 2 weeks, then given a 2 week wash out (no PGG) and finally received one more dose of PGG (week 5). Adverse events and complete blood counts were evaluated. In addition, whole blood and serum was evaluated for the following at various time points post-infusion: PGG binding to immune cells (monocytes, neutrophils, B-cells, DC subsets), complement activation (C5a and Sc5b9), serum cytokine/chemokine levels, IgG ABA levels, flow cytometry of immune cells, circulating immune complex formation and Quantigene analysis of transcriptional profile. Table 1 lists each subject's pre-dose IgG ABA levels, PGG dose and whether they received premedications.
Subjects were stratified/classified into subgroups based on pre-infusion ABA levels. ABA cutoff levels were selected based on prior studies and are only exemplary. Classification may include only 2 subgroups based on an IgG ABA cutoff level of 15 μg/ml, 20 μg/ml, 25, μg/ml, 30 μg/ml, 35 μg/ml, 40 μg/ml, 45 μg/ml or 50 μg/ml. Classification may also include 3, 4, 5 or more subgroups with each subgroup corresponding to a specific IgG ABA level range. For example, a 3 subgroup classification may include a Low-ABA subgroup encompassing ABA level ranges of <15 μg/ml, <20 μg/ml, <25 μg/ml or <30 μg/ml, a Mid-ABA subgroup encompassing a range having a low end ABA level of 20 μg/ml, 25 μg/ml, 30 μg/ml, 35 μg/ml, 40 μg/ml or 45 μg/ml and a high end ABA level of 30 μg/ml, 35 μg/ml, 40 μg/ml, 45 μg/ml, 50 μg/ml or 55 μg/ml, and a High-ABA subgroup encompassing ABA level ranges of >35 μg/ml, >40 μg/ml, >45 μg/ml, >50 μg/ml, >55 μg/ml, >60 μg/ml, >65 μg/ml or >70 μg/ml. As discussed in International Published Application No. WO2015084732A1, various ABA cutoff levels may be used for reasons such as differences in soluble β-glucan immunotherapy treatments and preferences regarding inclusiveness and exclusiveness of subgroups. Here, subjects whose ABA levels were less than 20 μg/ml were considered Low-ABA. Subjects with ABA levels between 20 μg/ml and 50 μg/ml were considered Mid-ABA. Subjects with ABA levels greater than 50 μg/ml were High-ABA. Serum and cellular IPD markers were analyzed pre-infusion, 15 minutes, 30 minutes and 1 hour post-infusion, end of infusion (EOI) and 1 hour, 2 hours, 3 hours, 4 hours, 24 hours, 48 hours and 168 hours after EOI.
ABA levels were then followed in subjects through single and multiple doses of PGG. ABA levels were measured in serum by ELISA, and subjects were placed in subgroups based on pre-infusion ABA levels: Low-ABA (<20 μg/mL), Mid-ABA (20-50 μg/mL) or High-ABA (>50 μg/mL). Whole blood or serum was drawn from the subjects at various time points before and after a single dose (Cohort 1) or multiple weekly doses (Cohorts 2 and 3) of PGG infusion. […] In some cases, such as shown for subject 67 in the Low-ABA subgroup, the increase may lead to a change in subgroup (Low-ABA to Mid-ABA).
Increasing the time between soluble β-glucan doses may not only promote repeated acute IPD responses but also enhance acute IPD responses, which may increase the effectiveness of soluble β-glucan therapy. […]

For “β(1,6)-[poly-(1,3)-D-glucopyranosyl]-poly-β(1,3)-D-glucopyranose [PGG]”, the “ABA levels over the 5 week course of treatment” value (Cohort 3: weeks 1, 2, 2 week wash out, week 5 dose, High-, Mid-, Low-ABA subjects) was “Increases in ABA were seen in all subjects with the largest increase occurring after administration of the week 5 dose”, the ABA subgroup classification (Cohort 3 Low-ABA subject, after the last (week 5) dose) was “converted to the Mid-ABA classification” and the ABA level changes (High-ABA (>50 μg/ml) healthy subjects) was “dropped during infusion with PGG and then rebounded about 48 hours EOI”. The ABA level changes (Low-ABA (<20 μg/ml) healthy subjects) was “essentially unaffected”, the ABA level changes (Mid-ABA (20-50 μg/ml) healthy subjects) was “increased at 48 hours after the EOI” and the “ABA levels after multiple doses” value (multiple weekly doses of PGG (Cohorts 2 and 3)) was “can increase ABA levels for some subjects”.

— US11815435B2, “Beta glucan immunopharmacodynamics” (HiberCell, Inc., priority 2017, dated 2023)
